pIC50: −log10 of the molar value. “And” between values parts separate entries of the source, which are not always exact repeats. Equal entries are not always repeated. Structures can show the parent of a compound that is named as a salt.
Each compound was assayed against hSK2 (Homo sapiens, UniProt Q9H2S1) (assay: 86Rb+ efflux assay for compound activity towards hSK channels). Conditions: 86Rb+ efflux stimulated with calcium ionophore; drug 0.01 to 30 μM; read-out: hSK2 Inhibitory Activity.
Type: cell-based
Method: 24.1 Assay for Compound Activity Towards hSK Channels
Cells expressing small conductance, calcium activated potassium channels, such as SK-like channels were loaded with ^86Rb^+ by culture in media containing ^86RbCl. Following loading, the culture media was removed and the cells were washed in EBSS to remove residual traces of ^86Rb^+. Cells were preincubated with the drug (0.01 to 30 μM in EBSS) and then ^86Rb^+ efflux was stimulated by exposing cells to EBSS solution supplemented with a calcium ionophore, such as ionomycin, in the continued presence of the drug. After a suitable efflux period, the EBSS/ionophore solution was removed from the cells and the ^86Rb^+ content was determined by Cherenkov counting (Wallac Trilux). Cells were then lysed with a SDS solution and the ^86Rb^+ content of the lysate was determined. Percent ^86Rb^+ efflux was calculated according to the following equation:
(^86Rb^+ content in EBSS/(86Rb^+ content in EBSS+^86Rb^+ content of the lysate))×100

Row | SMILES | pIC50
1 | CCc1cnc(-c2cccc(Nc3ccccn3)n2)s1 [[6-(5-Ethyl-thiazol-2-yl)-pyridin-2-yl]-pyridin-2-yl-amine] | > 7.00
2 | Clc1cnc(-c2cccc(Nc3ccc(N4CCCC4)cn3)n2)s1 [[6-(5-Chloro-thiazol-2-yl)-pyridin-2-yl]-(5-pyrrolidin-1-yl-pyridin-2-yl)-amine] | > 7.00
3 | CCOC(=O)CCc1ccc(Nc2cccc(-c3nccs3)n2)nc1 [3-[6-(6-Thiazol-2-yl-pyridin-2-ylamino)-pyridin-3-yl]-propionic acid ethyl ester] | > 7.00
4 | Cc1cnn(-c2cccc(Nc3ccc(N4CCC(C)CC4)cn3)n2)c1 [[6-(4-Methyl-pyrazol-1-yl)-pyridin-2-yl]-(4-methyl-3,4,5,6-tetrahydro-2H-[1,3′]bipyridinyl-6′-yl)-amine] | 6.30 to 7.00
5 | Brc1ccc(Nc2cccc(-c3nccs3)n2)nc1 [(5-Bromo-pyridin-2-yl)-(6-thiazol-2-yl-pyridin-2-yl)-amine] | > 7.00
6 | Cc1cnc(-c2cccc(Nc3ccccn3)n2)s1 [[6-(5-Methyl-thiazol-2-yl)-pyridin-2-yl]-pyridin-2-yl-amine] | > 7.00
7 | COc1ccc(-c2nccs2)nc1Nc1ccc(N(C)C2CCN(C)C2)cn1 (stereo not shown) [N^2-(3-Methoxy-6-thiazol-2-yl-pyridin-2-yl)-N^5-methyl-N^5-(1-methyl-pyrrolidin-3-yl)-pyridine-2,5-diamine] | 6.30 to 7.00
8 | COCCN(C)c1ccc(Nc2cccc(-c3ncc(Cl)s3)n2)nc1 [N^2-[6-(5-Chloro-thiazol-2-yl)-pyridin-2-yl]-N^5-(2-methoxy-ethyl)-N^5-methyl-pyridine-2,5-diamine] | > 7.00
9 | COc1ccc(-c2cnccn2)nc1Nc1ccc(N2CCCCC2)cn1 [(3-Methoxy-6-pyrazin-2-yl-pyridin-2-yl)-(3,4,5,6-tetrahydro-2H-[1,3′]bipyridinyl-6′-yl)-amine] | > 7.00
10 | Cc1ccc(-c2cccc(-c3nc4ccc(Cl)cc4[nH]3)n2)nc1 [6′-(6-Chloro-1H-benzoimidazol-2-yl)-5-methyl-[2,2′]bipyridinyl] | 6.30 to 7.00
11 | c1cncc(-c2ccc(Nc3cccc(-c4cnccn4)n3)nc2)c1 [[3,3′]Bipyridinyl-6-yl-(6-pyrazin-2-yl-pyridin-2-yl)-amine] | > 7.00
12 | Brc1ccc(Nc2cccc(-n3cccn3)n2)nc1 [(5-Bromo-pyridin-2-yl)-(6-pyrazol-1-yl-pyridin-2-yl)-amine] | > 7.00
13 | Cc1cnn(-c2cccc(Nc3ccc(F)cn3)n2)c1 [(5-Fluoro-pyridin-2-yl)-[6-(4-methyl-pyrazol-1-yl)-pyridin-2-yl]-amine] | > 7.00
14 | CCc1ccc(Nc2cccc(-c3nccs3)n2)nc1 [(5-Ethyl-pyridin-2-yl)-(6-thiazol-2-yl-pyridin-2-yl)-amine] | > 7.00
15 | Cc1cnn(-c2cccc(Nc3ccc(C(C)C)cn3)n2)c1 [(5-Isopropyl-pyridin-2-yl)-[6-(4-methyl-pyrazol-1-yl)-pyridin-2-yl]-amine] | > 7.00
16 | COc1ccc(-c2ncc(Cl)s2)nc1Nc1ccc(N2CCCCC2)cn1 [[6-(5-Chloro-thiazol-2-yl)-3-methoxy-pyridin-2-yl]-(3,4,5,6-tetrahydro-2H-[1,3′]bipyridinyl-6′-yl)-amine] | 6.30 to 7.00
17 | COc1ccc(-c2ncc(Cl)s2)nc1Nc1ccc(N2CCC(OC)CC2)cn1 [[6-(5-Chloro-thiazol-2-yl)-3-methoxy-pyridin-2-yl]-(4-methoxy-3,4,5,6-tetrahydro-2H-[1,3′]bipyridinyl-6′-yl)-amine] | > 7.00
18 | c1cc(Nc2cc3ccccc3cn2)nc(-c2nccs2)c1 [Isoquinolin-3-yl-(6-thiazol-2-yl-pyridin-2-yl)-amine] | > 7.00
19 | CC(C)(C)c1ccc(Nc2cccc(-c3nccs3)n2)nc1 [(5-tert-Butyl-pyridin-2-yl)-(6-thiazol-2-yl-pyridin-2-yl)-amine] | 6.30 to 7.00
20 | COc1ccc(-c2ncc(Cl)s2)nc1Nc1ccccn1 [[6-(5-Chloro-thiazol-2-yl)-3-methoxy-pyridin-2-yl]-pyridin-2-yl-amine] | > 7.00
21 | c1cc(Nc2nnc(C3CC3)s2)nc(-c2nccs2)c1 [(5-Cyclopropyl-[1,3,4]thiadiazol-2-yl)-(6-thiazol-2-yl-pyridin-2-yl)-amine] | 6.30 to 7.00
22 | COc1ccc(-c2ccccn2)nc1Nc1ccc(N2CCN(C)CC2)cn1 [(5-Methoxy-[2,2′]bipyridinyl-6-yl)-[5-(4-methyl-piperazin-1-yl)-pyridin-2-yl]-amine] | > 7.00
23 | c1ccc(CNCc2ccc(Nc3cccc(-c4nccs4)n3)nc2)cc1 [5-[(Benzylamino)methyl]-N-[6-(1,3-thiazol-2-yl)pyridin-2-yl]pyridin-2-amine dihydrochloride] | 6.30 to 7.00

Row | SMILES | pIC50
24 | O=C1CCCCN1c1ccc(Nc2cccc(-n3cccn3)n2)nc1 [6′-(6-Pyrazol-1-yl-pyridin-2-ylamino)-3,4,5,6-tetrahydro-[1,3′]bipyridinyl-2-one] | > 7.00
25 | COc1ccc(-c2cnccn2)nc1Nc1ccc(C(C)C)cn1 [(5-Isopropyl-pyridin-2-yl)-(3-methoxy-6-pyrazin-2-yl-pyridin-2-yl)-amine] | 6.30 to 7.00
26 | COc1ccccc1-c1ccc(Nc2cccc(-n3cc(C)cn3)n2)nc1 [[5-(2-Methoxy-phenyl)-pyridin-2-yl]-[6-(4-methyl-pyrazol-1-yl)-pyridin-2-yl]-amine] | > 7.00
27 | COc1ccc(-c2nccs2)nc1Nc1ccc(N2CCCN(C)CC2)cn1 [(3-Methoxy-6-thiazol-2-yl-pyridin-2-yl)-[5-(4-methyl-[1,4]diazepan-1-yl)-pyridin-2-yl]-amine] | 6.30 to 7.00
28 | COc1ccc(-c2ccccn2)nc1Nc1ccc(N2CCCCC2)cn1 [(5-Methoxy-[2,2′]bipyridinyl-6-yl)-(3,4,5,6-tetrahydro-2H-[1,3′]bipyridinyl-6′-yl)-amine] | > 7.00
29 | Clc1cnc(-c2cccc(Nc3ccc(N4CCOCC4)cn3)n2)s1 [[6-(5-Chloro-thiazol-2-yl)-pyridin-2-yl]-(5-morpholin-4-yl-pyridin-2-yl)-amine] | > 7.00
30 | COc1ccc(-c2cnccn2)nc1Nc1ccc(N2CCN(C)CC2)cn1 [(3-Methoxy-6-pyrazin-2-yl-pyridin-2-yl)-[5-(4-methyl-piperazin-1-yl)-pyridin-2-yl]-amine] | > 7.00
31 | COc1ccc(-c2ncc(Cl)s2)nc1Nc1ccc(N2CCOCC2)cn1 [[6-(5-Chloro-thiazol-2-yl)-3-methoxy-pyridin-2-yl]-(5-morpholin-4-yl-pyridin-2-yl)-amine] | > 7.00
32 | COc1ccc(-c2ccccn2)nc1Nc1ccc(C(C)C)cn1 [(5-Isopropyl-pyridin-2-yl)-(5-methoxy-[2,2′]bipyridinyl-6-yl)-amine] | > 7.00
33 | Cc1cnc(-c2cccc(Nc3ccc(N4CCCCC4)cn3)n2)s1 [[6-(5-Methyl-thiazol-2-yl)-pyridin-2-yl]-(3,4,5,6-tetrahydro-2H-[1,3′]bipyridinyl-6′-yl)-amine] | 6.30 to 7.00
34 | CC(C)c1cnc(-c2cccc(Nc3ccccn3)n2)s1 [[6-(5-Isopropyl-thiazol-2-yl)-pyridin-2-yl]-pyridin-2-yl-amine] | > 7.00
35 | COc1ccc(-c2nccs2)nc1Nc1ccc(-c2ccccn2)cn1 [[2,3′]Bipyridinyl-6′-yl-(3-methoxy-6-thiazol-2-yl-pyridin-2-yl)-amine] | > 7.00
36 | COc1ccc(-c2nccs2)nc1Nc1ccc(NC2CN3CCC2CC3)cn1 (stereo not shown) [N^5-(1-Aza-bicyclo[2.2.2]oct-3-yl)-N^2-(3-methoxy-6-thiazol-2-yl-pyridin-2-yl)-pyridine-2,5-diamine] | 6.30 to 7.00
37 | COc1ccc(-c2ncc(Cl)s2)nc1Nc1ccc(N2CCCC2=O)cn1 [1-{6-[6-(5-Chloro-thiazol-2-yl)-3-methoxy-pyridin-2-ylamino]-pyridin-3-yl}-pyrrolidin-2-one] | > 7.00
38 | Clc1cnc(-c2cccc(Nc3ccccn3)n2)s1 [[6-(5-Chloro-thiazol-2-yl)-pyridin-2-yl]-pyridin-2-yl-amine] | > 7.00
39 | c1cc(Nc2ccc(CN3CCc4ccccc4C3)cn2)nc(-c2nccs2)c1 [[5-(3,4-Dihydro-1H-isoquinolin-2-ylmethyl)-pyridin-2-yl]-(6-thiazol-2-yl-pyridin-2-yl)-amine] | > 7.00
40 | C=C(C)c1ccc(Nc2cccc(-n3cc(C)cn3)n2)nc1 [(5-Isopropenyl-pyridin-2-yl)-[6-(4-methyl-pyrazol-1-yl)-pyridin-2-yl]-amine] | > 7.00
41 | COC(=O)c1ccc(Nc2cccc(-n3cccn3)n2)nc1 [6-(6-Pyrazol-1-yl-pyridin-2-ylamino)-nicotinic acid methyl ester] | 6.30 to 7.00
42 | COCCN(C)c1ccc(Nc2nc(-c3ncc(Cl)s3)ccc2OC)nc1 [N^2-[6-(5-Chloro-thiazol-2-yl)-3-methoxy-pyridin-2-yl]-N^5-(2-methoxy-ethyl)-N^5-methyl-pyridine-2,5-diamine] | > 7.00
43 | COc1ccc(-c2nccs2)nc1Nc1ccc(C(C)C)cn1 [(5-Isopropyl-pyridin-2-yl)-(3-methoxy-6-thiazol-2-yl-pyridin-2-yl)-amine] | > 7.00 and 6.30 to 7.00
44 | c1cc(Nc2ccc(-c3ccco3)cn2)nc(-c2cnccn2)c1 [(5-Furan-2-yl-pyridin-2-yl)-(6-pyrazin-2-yl-pyridin-2-yl)-amine] | > 7.00
45 | COc1ccc(Nc2cccc(-n3cc(C)cn3)n2)nc1 [(5-Methoxy-pyridin-2-yl)-[6-(4-methyl-pyrazol-1-yl)-pyridin-2-yl]-amine] | > 7.00
46 | c1ccc(-c2cc(Nc3cccc(-c4nccs4)n3)[nH]n2)cc1 [(5-Phenyl-2H-pyrazol-3-yl)-(6-thiazol-2-yl-pyridin-2-yl)-amine] | > 7.00
